From PubChem BioAssay AID2060602 (Molecular Pharmacology Branch, DTP, NCI, 2025)

System: 648629-189-R-J1-PDC complex spheroids viability
Experiment: Anticancer human tumor 648629-189-R-J1-PDC patient-derived bladder carcinoma cell line growth inhibition [CLK]
Settings: for IC50: curve of first compound; for viability, T/C: stronger effect = lower value
Procedure, shortened: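 Patient-derived tumor cells grown as complex spheroids with HUVEC endothelial cells and mesenchymal stem cells, treated with drug combinations. Concentrations descend in half-log steps from near clinical Cmax, or from 10 microM if Cmax unknown.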

[1] = second compound 0.0316 µM, first compound 0.0316 µM
[2] = second compound 0.0316 µM, first compound 0.1 µM
[3] = second compound 0.0316 µM, first compound 0.316 µM
[4] = second compound 0.0316 µM, first compound 1 µM
[5] = second compound 0.1 µM, first compound 0.0316 µM
[6] = second compound 0.1 µM, first compound 0.1 µM
[7] = second compound 0.1 µM, first compound 0.316 µM
[8] = second compound 0.1 µM, first compound 1 µM
[9] = second compound 0.316 µM, first compound 0.0316 µM
[10] = second compound 0.316 µM, first compound 0.1 µM
[11] = second compound 0.316 µM, first compound 0.316 µM
[12] = second compound 0.316 µM, first compound 1 µM
[13] = second compound 1 µM, first compound 0.0316 µM
[14] = second compound 1 µM, first compound 0.1 µM
[15] = second compound 1 µM, first compound 0.316 µM
[16] = second compound 1 µM, first compound 1 µM
[17] = second compound 3.16 µM, first compound 0.0316 µM
[18] = second compound 3.16 µM, first compound 0.1 µM
[19] = second compound 3.16 µM, first compound 0.316 µM
[20] = second compound 3.16 µM, first compound 1 µM
[21] = second compound 10 µM, first compound 0.0316 µM
[22] = second compound 10 µM, first compound 0.1 µM
[23] = second compound 10 µM, first compound 0.316 µM
[24] = second compound 10 µM, first compound 1 µM
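Wherever viability, T/C is given: drug exposure lasted seven days before viability readout; 100% = DMSO vehicle control wells.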

## C=CC(=O)Nc1cc(Nc2nccc(-c3cn(C)c4ccccc34)n2)c(OC)cc1N(C)CCN(C)C + CNC(=O)c1ccc(Nc2nc(OC3CCCC3)c3c(-c4ccc5nc(C)oc5c4)c[nH]c3n2)c(OC)c1
Second compound 0.0316 µM
  IC50: > 300 nM
Second compound 0.1 µM
  IC50: 132 nM
Second compound 0.316 µM
  IC50: < 0.949 nM
Second compound 1 µM
  IC50: < 0.949 nM
Second compound 3.16 µM
  IC50: < 0.949 nM
Second compound 10 µM
  IC50: < 0.949 nM
Second compound 0.0316 µM, first compound 0.000949 µM
  viability, T/C: 92.6%
Second compound 0.0316 µM, first compound 0.003 µM
  viability, T/C: 103%
Second compound 0.0316 µM, first compound 0.00949 µM
  viability, T/C: 102%
Second compound 0.0316 µM, first compound 0.03 µM
  viability, T/C: 97.1%
Second compound 0.0316 µM, first compound 0.0949 µM
  viability, T/C: 100%
Second compound 0.0316 µM, first compound 0.3 µM
  viability, T/C: 95.4%
Second compound 0.1 µM, first compound 0.000949 µM
  viability, T/C: 83.9%
Second compound 0.1 µM, first compound 0.003 µM
  viability, T/C: 73.5%
Second compound 0.1 µM, first compound 0.00949 µM
  viability, T/C: 69.3%
Second compound 0.1 µM, first compound 0.03 µM
  viability, T/C: 66.2%
Second compound 0.1 µM, first compound 0.0949 µM
  viability, T/C: 51%
Second compound 0.1 µM, first compound 0.3 µM
  viability, T/C: 42.6%
Second compound 0.316 µM, first compound 0.000949 µM
  viability, T/C: 27.9%
Second compound 0.316 µM, first compound 0.003 µM
  viability, T/C: 27.3%
Second compound 0.316 µM, first compound 0.00949 µM
  viability, T/C: 21.8%
Second compound 0.316 µM, first compound 0.03 µM
  viability, T/C: 19%
Second compound 0.316 µM, first compound 0.0949 µM
  viability, T/C: 22.1%
Second compound 0.316 µM, first compound 0.3 µM
  viability, T/C: 15.5%
Second compound 1 µM, first compound 0.000949 µM
  viability, T/C: 21.3%
Second compound 1 µM, first compound 0.003 µM
  viability, T/C: 19.4%
Second compound 1 µM, first compound 0.00949 µM
  viability, T/C: 23.2%
Second compound 1 µM, first compound 0.03 µM
  viability, T/C: 16.1%
Second compound 1 µM, first compound 0.0949 µM
  viability, T/C: 16.5%
Second compound 1 µM, first compound 0.3 µM
  viability, T/C: 13.2%
Second compound 3.16 µM, first compound 0.000949 µM
  viability, T/C: 18.7%
Second compound 3.16 µM, first compound 0.003 µM
  viability, T/C: 19.8%
Second compound 3.16 µM, first compound 0.00949 µM
  viability, T/C: 16.6%
Second compound 3.16 µM, first compound 0.03 µM
  viability, T/C: 16.1%
Second compound 3.16 µM, first compound 0.0949 µM
  viability, T/C: 16.3%
Second compound 3.16 µM, first compound 0.3 µM
  viability, T/C: 14.8%
Second compound 10 µM, first compound 0.000949 µM
  viability, T/C: 18.5%
Second compound 10 µM, first compound 0.003 µM
  viability, T/C: 22.1%
Second compound 10 µM, first compound 0.00949 µM
  viability, T/C: 22.6%
Second compound 10 µM, first compound 0.03 µM
  viability, T/C: 17.6%
Second compound 10 µM, first compound 0.0949 µM
  viability, T/C: 17.9%
Second compound 10 µM, first compound 0.3 µM
  viability, T/C: 13.8%

## CCN1CCN(Cc2ccc(Nc3ncc(F)c(-c4cc(F)c5nc(C)n(C(C)C)c5c4)n3)nc2)CC1 + CN1CCN(c2cc(C(=O)Nc3cc4cc(-c5cnn(C)c5)ccc4cn3)ccn2)CC1
Second compound 0.0316 µM
  IC50: > 1000 nM
Second compound 0.1 µM
  IC50: > 1000 nM
Second compound 0.316 µM
  IC50: < 3.16 nM
Second compound 1 µM
  IC50: < 3.16 nM
Second compound 3.16 µM
  IC50: < 3.16 nM
Second compound 10 µM
  IC50: < 3.16 nM
Second compound 0.0316 µM, first compound 0.00316 µM
  viability, T/C: 108%
Second compound 0.0316 µM, first compound 0.01 µM
  viability, T/C: 101%
[1]
  viability, T/C: 101%
[2]
  viability, T/C: 127%
[3]
  viability, T/C: 122%
[4]
  viability, T/C: 123%
Second compound 0.1 µM, first compound 0.00316 µM
  viability, T/C: 104%
Second compound 0.1 µM, first compound 0.01 µM
  viability, T/C: 104%
[5]
  viability, T/C: 102%
[6]
  viability, T/C: 101%
[7]
  viability, T/C: 108%
[8]
  viability, T/C: 101%
Second compound 0.316 µM, first compound 0.00316 µM
  viability, T/C: 37%
Second compound 0.316 µM, first compound 0.01 µM
  viability, T/C: 48.5%
[9]
  viability, T/C: 41.7%
[10]
  viability, T/C: 50.6%
[11]
  viability, T/C: 47.3%
[12]
  viability, T/C: 40.4%
Second compound 1 µM, first compound 0.00316 µM
  viability, T/C: 0.42%
Second compound 1 µM, first compound 0.01 µM
  viability, T/C: 0.24%
[13]
  viability, T/C: 0.61%
[14]
  viability, T/C: 0.35%
[15]
  viability, T/C: 0.54%
[16]
  viability, T/C: 0.32%
Second compound 3.16 µM, first compound 0.00316 µM
  viability, T/C: 0.14%
Second compound 3.16 µM, first compound 0.01 µM
  viability, T/C: 0.26%
[17]
  viability, T/C: 0.49%
[18]
  viability, T/C: 0.15%
[19]
  viability, T/C: 0.16%
[20]
  viability, T/C: 0.16%
Second compound 10 µM, first compound 0.00316 µM
  viability, T/C: 0.21%
Second compound 10 µM, first compound 0.01 µM
  viability, T/C: 0.21%
[21]
  viability, T/C: 0.17%
[22]
  viability, T/C: 0.16%
[23]
  viability, T/C: 1.22%
[24]
  viability, T/C: 1.51%

## CC1COCCN1c1cc(C2(S(C)(=N)=O)CC2)nc(-c2ccnc3[nH]ccc23)n1 (stereo unspecified) + CN1CCN(c2cc(C(=O)Nc3cc4cc(-c5cnn(C)c5)ccc4cn3)ccn2)CC1
Second compound 0.0316 µM
  IC50: 4570 nM
Second compound 0.1 µM
  IC50: 3950 nM
Second compound 0.316 µM
  IC50: < 31.6 nM
Second compound 1 µM
  IC50: < 31.6 nM
Second compound 3.16 µM
  IC50: < 31.6 nM
Second compound 10 µM
  IC50: < 31.6 nM
[1]
  viability, T/C: 115%
[2]
  viability, T/C: 116%
[3]
  viability, T/C: 103%
[4]
  viability, T/C: 97.1%
Second compound 0.0316 µM, first compound 3.16 µM
  viability, T/C: 59.5%
Second compound 0.0316 µM, first compound 10 µM
  viability, T/C: 27.5%
[5]
  viability, T/C: 109%
[6]
  viability, T/C: 95.4%
[7]
  viability, T/C: 96.8%
[8]
  viability, T/C: 83%
Second compound 0.1 µM, first compound 3.16 µM
  viability, T/C: 54.3%
Second compound 0.1 µM, first compound 10 µM
  viability, T/C: 26.5%
[9]
  viability, T/C: 33.3%
[10]
  viability, T/C: 45.9%
[11]
  viability, T/C: 39.8%
[12]
  viability, T/C: 34.8%
Second compound 0.316 µM, first compound 3.16 µM
  viability, T/C: 19.1%
Second compound 0.316 µM, first compound 10 µM
  viability, T/C: 9.89%
[13]
  viability, T/C: 0.39%
[14]
  viability, T/C: 0.82%
[15]
  viability, T/C: 0.84%
[16]
  viability, T/C: 0.41%
Second compound 1 µM, first compound 3.16 µM
  viability, T/C: 0.31%
Second compound 1 µM, first compound 10 µM
  viability, T/C: 0.11%
[17]
  viability, T/C: 1.1%
[18]
  viability, T/C: 0.7%
[19]
  viability, T/C: 0.19%
[20]
  viability, T/C: 0.15%
Second compound 3.16 µM, first compound 3.16 µM
  viability, T/C: 0.15%
Second compound 3.16 µM, first compound 10 µM
  viability, T/C: 1.68%
[21]
  viability, T/C: 0.16%
[22]
  viability, T/C: 0.16%
[23]
  viability, T/C: 0.22%
[24]
  viability, T/C: 0.22%
Second compound 10 µM, first compound 3.16 µM
  viability, T/C: 0.22%
Second compound 10 µM, first compound 10 µM
  viability, T/C: 0.19%
